Here are results for 38 compounds from ChEMBL document CHEMBL3044538, “QSAR Analysis of BABQ compounds via calculated molecular descriptors” (Med Chem Res, 2006).

Data set [1] deals with L1210. The data set can be described thus: Cytotoxicity against Mus musculus (mouse) L1210 cells. In kind it is functional.
For the next data set, the species on record is Rattus norvegicus. The data set can be described thus: Toxicity in Rattus norvegicus (rat). As to conditions: in vivo. In kind it is organism-based.
The test system of another data set is B16. The data set can be described thus: Antitumor activity against Mus musculus (mouse) B16 cells xenografted in rat. The format is functional.
In data set [2] the test system is L1210. The data set can be described thus: Antitumor activity against Mus musculus (mouse) L1210 cells xenografted in rat. The format is functional.

Take `O=C1C(Cl)=C(N2CC2)C(=O)C(Cl)=C1N1CC1`: the “log(1/MIC)” value in the data set with L1210 [1] was -0.3.
Still for that read-out and setting: in the case of `O=C1C(Br)=C(N2CC2)C(=O)C(Br)=C1N1CC1` it was 0.35; in that of `O=C1C(N2CC2)=C(N2CC2)C(=O)C(N2CC2)=C1N1CC1`, 0.9.
Still for that read-out and setting: in the case of `O=C1C(F)=C(N2CC2)C(=O)C(F)=C1N1CC1` it was -0.2; in that of `CC1=C(C)C(=O)C(N2CCCC2)=CC1=O`, -1.7.
For `CC1=C(N2CC2C)C(=O)C(Br)=C(N2CC2C)C1=O` (centres undefined), the “log(1/LD50)” value in the data set listed under Rattus norvegicus came to 1.59.
Turning to `CCC1=C(N2CC2)C(=O)C(Br)=C(N2CC2)C1=O`, the “log(1/LD50)” value in the data set listed under Rattus norvegicus is given as 1.39. Further, the “log(1/MIC)” value in the data set with B16 is reported as 2.6.
For the compound `CC1=C(N2C(C)C2C)C(=O)C(Br)=C(N2C(C)C2C)C1=O` (centres undefined), the “log(1/MIC)” value in the data set with L1210 [2] was 0.69; with L1210 [1], -0.1. In the data set filed under Rattus norvegicus, the “log(1/LD50)” value is listed as 0.63.
`O=C1C(N2CCCC2)=C(N2CC2)C(=O)C(N2CCCC2)=C1N1CC1`: the “log(1/MIC)” value in the data set with B16 is 2.4; with L1210 [1] it was -0.3.
With `O=C1C(F)=C(N2CC2)C(=O)C(N2CC2)=C1N1CC1`, the “log(1/LD50)” value in the data set filed under Rattus norvegicus is listed as 1.62.
Take `CN(CCO)C1=C(N2CC2)C(=O)C(N(C)CCO)=C(N2CC2)C1=O`: the “log(1/MIC)” value in the data set on L1210 [1] was 0.09.
Regarding `CCOC(=O)NC1=C(N2CC2C)C(=O)C(NC(=O)OCC)=C(N2CC2C)C1=O` (centres undefined), the “log(1/LD50)” value in the data set listed under Rattus norvegicus is listed as 0.69. Moreover, the “log(1/MIC)” value in the data set with L1210 [1] was -1.
Take `CC1=C(C)C(=O)C(N2CC=CC2)=CC1=O`: the “log(1/MIC)” value in the data set on L1210 [1] is -0.7.
`NC(=O)OCCC1=C(N2CC2)C(=O)C(Br)=C(N2CC2)C1=O`: the “log(1/MIC)” value with L1210 [2] came to 2. Also, in the data set listed under Rattus norvegicus, the “log(1/LD50)” value amounted to 1.05.
Consider `CC1=C(N2CC2C)C(=O)C(CCOC(N)=O)=C(N2CC2C)C1=O` (centres undefined), for which the “log(1/MIC)” value with L1210 [1] is -0.1.
Take `CC1CN1C1=CC(=O)C(N2CC2C)=CC1=O` (centres undefined): in the data set listed under Rattus norvegicus, the “log(1/LD50)” value was found to be 1.16.
As to `COC1=C(C)C(=O)C(N2CCCC2)=CC1=O`, the “log(1/MIC)” value in the data set on L1210 [1] was -1.6.
In the case of `O=C1C=C(N2CCCC2)C(=O)C=C1N1CCCC1`, the “log(1/MIC)” value in the data set on L1210 [1] is -1.6.
Turning to `O=C1C(NCCO)=C(N2CC2)C(=O)C(NCCO)=C1N1CC1`, the “log(1/MIC)” value in the data set with L1210 [2] was found to be 3.39; in the data set with B16, 3.94; in the data set on L1210 [1] it was 0.42.
For `CNC1=C(N2CC2C)C(=O)C(NC)=C(N2CC2C)C1=O` (centres undefined) the same measures were 2.19, 2.33 and -0.3.
Turning to `CC1CN1C1=CC(=O)C(N2CC2C)=C(F)C1=O` (centres undefined), in the data set filed under Rattus norvegicus, the “log(1/LD50)” value worked out at 1.5. Moreover, the “log(1/MIC)” value with L1210 [1] is 1.49.
For the compound `COC1=C(N2CC2C)C(=O)C=C(N2CC2C)C1=O` (centres undefined), the “log(1/MIC)” value with L1210 [2] was 1.47; in the data set on B16, 2.27; with L1210 [1], -0.5. In addition, the “log(1/LD50)” value in the data set listed under Rattus norvegicus stood at 1.4.
As for `CNC1=C(N2CC2)C(=O)C(NC)=C(N2CC2)C1=O`, the “log(1/MIC)” value is reported as 2.49 in the data set on L1210 [2], 3.14 in the data set on B16 and 0.32 with L1210 [1].
For the compound `CC1=C(N2CC2)C(=O)C(CCOC(N)=O)=C(N2CC2)C1=O`, the “log(1/LD50)” value in the data set filed under Rattus norvegicus is reported as 1.99.
For `CC1CN1C1=C(N2CCCC2)C(=O)C(N2CC2C)=C(N2CCCC2)C1=O` (centres undefined), the “log(1/MIC)” value in the data set on L1210 [1] is reported as -1.1.
`CC1=C(N2CC2)C(=O)C(Br)=C(N2CC2)C1=O`: the “log(1/LD50)” value in the data set filed under Rattus norvegicus is listed as 1.44.
Still for that read-out and setting: in the case of `CC1CN1C1=C(F)C(=O)C(N2CC2C)=C(N2CC2C)C1=O` (centres undefined) it was 1.45.
On to `CC1CN1C1=C(Cl)C(=O)C(N2CC2C)=C(Cl)C1=O` (centres undefined), for which the “log(1/MIC)” value was 1.16 in the data set with L1210 [2] and -0.6 in the data set on L1210 [1].
Take `CC1CN1C1=C(Br)C(=O)C(N2CC2C)=C(Br)C1=O` (centres undefined): the “log(1/MIC)” value with L1210 [1] is reported as 0.77.
Still for that read-out and setting: in the case of `CCOC(=O)NC1=CC(=O)C(NC(=O)OCC)=CC1=O` it was 0.09; in that of `O=C1C=C(N2CC=CC2)C(=O)C=C1N1CC=CC1`, -1.6.
`CC1=C(N2CC2)C(=O)C(CCO)=C(N2CC2)C1=O`: in the data set listed under Rattus norvegicus, the “log(1/LD50)” value turned out to be 1.39. In addition, the “log(1/MIC)” value with B16 came out at 3.6.
In the case of `CCC1=C(N2CC2)C(=O)C(C)=C(N2CC2)C1=O`, in the data set listed under Rattus norvegicus, the “log(1/LD50)” value amounted to 1.46. The “log(1/MIC)” value in the data set with L1210 [1] is listed as -0.3.
As for `O=C1C=C(N2CC2)C(=O)C=C1N1CC1`, the “log(1/LD50)” value in the data set listed under Rattus norvegicus was determined as 1.8.
In the case of `COC1=C(N2CC2)C(=O)C(OC)=C(N2CC2)C1=O`, in the data set with L1210 [1], the “log(1/MIC)” value stood at 0.15.
Take `COC(COC(N)=O)C1=C(N2CC2)C(=O)C(C)=C(N2CC2)C1=O` (centres undefined) [CARBOQUONE]: the “log(1/LD50)” value in the data set listed under Rattus norvegicus is reported as 1.73.
Turning to `CCOC(=O)NC1=C(N2CC2)C(=O)C(NC(=O)OCC)=C(N2CC2)C1=O` [DIAZIQUONE], the “log(1/LD50)” value in the data set listed under Rattus norvegicus is reported as 1.54. Further, the “log(1/MIC)” value in the data set on L1210 [1] is -0.5.
On to `O=C1C=C(N2CC2)C(=O)C(N2CC2)=C1N1CC1` [TRIAZIQUONE], for which the “log(1/LD50)” value in the data set filed under Rattus norvegicus is given as 2.66. Also, the “log(1/MIC)” value in the data set on B16 was found to be 3.8.
